Measured values: publication PMC4394749 (Journal of medicinal chemistry, 2015)
Each block holds one compound with its values, some of them ahead of it.

Legend:
[1] = tested on: HepG2 (hepatocellular carcinoma); assay: SRB antiproliferative assay, HepG2; type: cell-based, human; conditions: for IC50: read-out: IC50 Hep-G2, 72 h; for IC50 Hep-G2: 72 h
[2] = tested on: HCT-8 (human colon adenocarcinoma); assay: SRB antiproliferative assay, HCT-8; type: cell-based; conditions: for IC50: read-out: IC50 HCT-8
[3] = tested on: PC-3 cells; assay: Immunofluorescence staining of microtubules in PC-3 cells; type: cell-based, human; conditions: PC-3, 24 h; for dose-dependent effects on microtubule morphology: compounds 0.2, 2 or 20 µM, CA-4 0.002 or 20 µM; for microtubule morphology: equitoxic concentrations: 0.2 µM 4, 0.2 µM CA-4, 5 µM VIN, 0.2 µM PXL
[4] = tested on: KB (epidermoid carcinoma of the nasopharynx); assay: SRB antiproliferative assay, KB; type: cell-based, human; conditions: for IC50: read-out: IC50 KB, 72 h; for IC50 KB: 72 h
[5] = molecular target: bovine brain tubulin (Bos taurus, UniProt P81947+Q6B856); assay: Inhibition of [3H]colchicine binding to tubulin; conditions: 5 µM [3H]colchicine, 1 µM tubulin, 5 µM test compound
Sequence of bovine brain tubulin (P81947 whole entry): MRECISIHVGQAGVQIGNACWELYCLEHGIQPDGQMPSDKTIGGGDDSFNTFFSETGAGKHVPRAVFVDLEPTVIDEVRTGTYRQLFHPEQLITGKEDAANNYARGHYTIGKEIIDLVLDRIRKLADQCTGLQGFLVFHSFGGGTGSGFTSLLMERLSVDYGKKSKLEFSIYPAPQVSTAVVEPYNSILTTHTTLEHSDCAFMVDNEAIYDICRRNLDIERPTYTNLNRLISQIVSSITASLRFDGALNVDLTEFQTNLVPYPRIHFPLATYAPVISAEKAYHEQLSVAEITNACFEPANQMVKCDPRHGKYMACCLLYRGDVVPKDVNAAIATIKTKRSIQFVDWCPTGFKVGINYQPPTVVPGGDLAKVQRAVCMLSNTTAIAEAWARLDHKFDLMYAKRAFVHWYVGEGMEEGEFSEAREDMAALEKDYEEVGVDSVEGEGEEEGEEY
Sequence of bovine brain tubulin (Q6B856 whole entry): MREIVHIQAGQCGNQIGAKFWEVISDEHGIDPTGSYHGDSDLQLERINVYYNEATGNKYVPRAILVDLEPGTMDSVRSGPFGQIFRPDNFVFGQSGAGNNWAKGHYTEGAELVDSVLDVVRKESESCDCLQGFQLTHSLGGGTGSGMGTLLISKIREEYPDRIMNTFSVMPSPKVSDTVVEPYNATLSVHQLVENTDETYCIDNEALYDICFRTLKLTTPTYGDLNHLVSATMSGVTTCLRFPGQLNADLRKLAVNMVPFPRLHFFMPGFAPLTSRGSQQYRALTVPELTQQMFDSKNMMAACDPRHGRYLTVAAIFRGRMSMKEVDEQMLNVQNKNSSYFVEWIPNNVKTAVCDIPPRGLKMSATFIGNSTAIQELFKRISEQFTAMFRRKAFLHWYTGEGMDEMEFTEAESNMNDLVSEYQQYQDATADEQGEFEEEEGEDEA

[6] = tested on: PC-3 cells; assay: Cell cycle analysis by flow cytometry; type: cell-based, human; conditions: 2 µM, 24 h
[7] = tested on: A549 (lung carcinoma); assay: SRB antiproliferative assay, A549; type: cell-based, human; conditions: for IC50: read-out: IC50 A549, 72 h; for IC50 A549: 72 h
[8] = tested on: KB-VIN (P-gp-overexpressing MDR subline of KB); assay: SRB antiproliferative assay, KB-VIN; type: cell-based, human; conditions: for IC50: read-out: IC50 KB-VIN, 72 h
[9] = tested on: PC-3 (prostate cancer); assay: SRB antiproliferative assay, PC-3; type: cell-based, human; conditions: for IC50: read-out: IC50 PC-3; for IC50 / IC50 PC-3: SRB, 72 h
[10] = tested on: SK-BR-3 (HER2-overexpressing breast cancer); assay: SRB antiproliferative assay, SK-BR-3; type: cell-based, human; conditions: for IC50: read-out: IC50 SK-BR3, 72 h

Compound: CCC1=C(O)c2c(oc(-c3csc4ccc(O)cc34)cc2=O)C(CC)(CC)C1=O [Compound 7, 2-(5′-Hydroxybenzo[b]thiophen-3′-yl)-6,8,8-triethyldesmos-dumotin B]
- ICB, percent inhibition of colchicine binding [5]: 32%

Compound: CC[C@]1(O)C[C@H]2CN(CCc3c([nH]c4ccccc34)[C@@](C(=O)OC)(c3cc4c(cc3OC)N(C=O)[C@H]3[C@@](O)(C(=O)OC)[C@H](OC(C)=O)[C@]5(CC)C=CCN6CC[C@]43[C@@H]65)C2)C1 [VIN, vincristine, reference compound]
- microtubule morphology [3]: tubulin paracrystal formation

Compound: CCC1=C(O)c2c(oc(-c3csc4cc(O)ccc34)cc2=O)C(CC)(CC)C1=O [Compound 8, 2-(6′-Hydroxybenzo[b]thiophen-3′-yl)-6,8,8-triethyldesmos-dumotin B]
- ICB, percent inhibition of colchicine binding [5]: 39%

Compound: COc1ccc(/C=C\c2cc(OC)c(OC)c(OC)c2)cc1O [CA-4, combretastatin A-4, reference compound]
- microtubule morphology [3]: both depolymerization of interphase microtubules and disruption of mitotic spindles
- dose-dependent effects on microtubule morphology [3]: Dose-dependent disruption of both interphase microtubules and spindles

Second part, led by results:

- IC50 [1]: 3.01 µM
- IC50 ([2]; SRB, 72 h): 10.6 µM
- IC50 [4]: 1.28 µM
- ICB, percent inhibition of colchicine binding [5]: 37%
- IC50 [7]: 2.04 µM
- IC50 [9]: 1.47 µM
Compound: CCC1=C(O)c2c(oc(-c3csc4c(O)cccc34)cc2=O)C(CC)(CC)C1=O [Compound 9, 2-(7′-Hydroxybenzo[b]thiophen-3′-yl)-6,8,8-triethyldesmos-dumotin B]
- fold reduced inhibitory effect against HCT-8 ([2]; compared with 6 and 8): more than 5 fold
- dose-dependent effects on microtubule morphology [3]: Dose-dependent disruption of both interphase microtubules and spindles
- effect on cell cycle distribution [6]: efficiently induced accumulation of G2/M phase cells
- IC50 [8]: 1.12 µM

- IC50 Hep-G2 [1]: NA (NA, not active (IC50 > 10 µg/mL))
- IC50 HCT-8 ([2]; SRB, 72 h): NA (NA, not active (IC50 > 10 µg/mL))
- IC50 KB [4]: NA ^e (NA, not active (IC50 > 10 µg/mL))
- IC50 [10]: 18.7 µM
- IC50 A549 [7]: NA (NA, not active (IC50 > 10 µg/mL))
- IC50 PC-3 [9]: NA (NA, not active (IC50 > 10 µg/mL))
Compound: CCC1=C(O)c2c(oc(-c3csc4cccc(OC)c34)cc2=O)C(CC)(CC)C1=O [Compound 10, 2-(4′-Methoxybenzo[b]thiophen-3′-yl)-6,8,8-triethyldes-mosdumotin B]
- IC50 [8]: 11.8 µM

- IC50 Hep-G2 [1]: NA (NA, not active (IC50 > 10 µg/mL))
- IC50 ([2]; SRB, 72 h): 16.2 µM
- IC50 KB [4]: NA (NA, not active (IC50 > 10 µg/mL))
- IC50 SK-BR3 ([10]; 72 h): NA (NA, not active (IC50 > 10 µg/mL))
- IC50 A549 [7]: NA (NA, not active (IC50 > 10 µg/mL))
- IC50 PC-3 [9]: NA (NA, not active (IC50 > 10 µg/mL))
Compound: CCC1=C(O)c2c(oc(-c3csc4ccc(OC)cc34)cc2=O)C(CC)(CC)C1=O [Compound 11, 2-(5′-Methoxybenzo[b]thiophen-3′-yl)-6,8,8-triethyldes-mosdumotin B]
- IC50 KB-VIN ([8]; 72 h): NA (NA, not active (IC50 > 10 µg/mL))

- IC50 [1]: 15.8 µM
- IC50 ([2]; SRB, 72 h): 16.5 µM
- IC50 [4]: 19.6 µM
- IC50 [10]: 12.1 µM
- IC50 [7]: 12.5 µM
- IC50 [9]: 14.6 µM
Compound: CCC1=C(O)c2c(oc(-c3sc4ccccc4c3O)cc2=O)C(CC)(CC)C1=O [Compound 14, 2-(3′-Hydroxybenzo[b]thiophen-2′-yl)-6,8,8-triethyldesmos-dumotin B]
- IC50 [8]: 6.61 µM
- fold reduced activity against PC-3 ([9]; compared with parent compound 13): 4 fold
